Measurements from patent publication US10894770B2, “Fullerene derivative and n-type semiconductor material” (DAIKIN INDUSTRIES, LTD., priority 2015, dated 2021).

Experiments:
[1] = Solubility measured with a toluene solution (absorbance of the supernatant of a supersaturated solution); format: physicochemical; details: room temperature, from absorbance and molar extinction coefficient
Protocol: The solubility in toluene at room temperature can be determined from the absorbance in accordance with the Beer-Lambert law. First, a molar extinction coefficient is determined using a fullerene derivative toluene solution of a known concentration. A predetermined amount of the supernatant of a supersaturated fullerene derivative toluene solution is weighed, and the absorbance of this solution is measured. The concentration is calculated from the following equation. C=A/εd wherein C is a concentration; A is an absorbance; ε is a molar extinction coefficient; and d is a cell length for absorbance measurement (1 cm)
The solubility of each fullerene derivative was calculated from the absorbance measured with an ultraviolet-visible absorptiometer.
In advance, the absorbance of the fullerene derivatives of a predetermined concentration was measured to determine the molar extinction coefficient of each compound.
A supersaturated toluene solution of a fullerene derivative was prepared. A predetermined amount of the supernatant of this solution was taken out, and its absorbance was measured.
From the measured absorbance value and the molar extinction coefficient, the concentration of the supernatant of the supersaturated toluene solution was determined.

[2] = LUMO level estimated from cyclic voltammetry (CV); format: physicochemical; details: for E1/2^1, half-wave potential of the first reduction wave: CV, 3-electrode system, chlorobenzene:acetonitrile=5:1, n-Bu4NPF6 0.1 mol/L; for LUMO: ELUMO=−(E1/2^1+4.8) eV, from CV
Protocol: The LUMO level can be measured by a method according to Karakawa et al., Journal of Materials Chemistry A, 2014, vol. 2, p. 20889.
The LUMO level of the fullerene derivatives obtained in Synthesis Examples and the control compounds was estimated from the measured values in cyclic voltammetry (CV).
The measurement was performed in accordance with the experiment section in M. Karakawa et al., Journal of Material Chemistry A, 2014, vol. 2, p. 20889. • Measurement Device: BAS CV-50W Voltammetric Analyzer • Measurement Solvent: Chlorobenzene:Acetonitrile=5:1 • Supporting Electrolyte: n-Bu4NPF6 concentration 0.1 mol/L
The LUMO level is calculated from the half-wave potential E1/2^1 (Fc/Fc^+ benchmark) of the first reduction wave measured by CV (3-electrode system) using the following equation. ELUMO=−(E1/2^1+4.8)ev

Row | SMILES | Solubility in Toluene [1] [%] | E1/2^1, half-wave potential of the first reduction wave [2] [V vs Fc/Fc^++] | LUMO [2] [eV]
1 | CCCCCCC1N(c2ccccc2)C(CC(CC)CCCC)C23c4c5c6c7c8c9c(c%10c%11c2c2c%12c4c4c%13c5c5c7c7c8c8c%14c9c%10c9c%10c%11c2c2c%11c%12c4c4c%12c%13c5c5c7c7c8c8c%14c9c9c%10c2c2c%11c4c4c%12c5c7c5c8c9c2c45)C613 (stereo not drawn) [Compound 8] | 7.0 |  | 
2 | CCCCC(CC)CC1N(c2ccccc2)C(c2ccccc2)C23c4c5c6c7c8c9c(c%10c%11c2c2c%12c4c4c%13c5c5c7c7c8c8c%14c9c%10c9c%10c%11c2c2c%11c%12c4c4c%12c%13c5c5c7c7c8c8c%14c9c9c%10c2c2c%11c4c4c%12c5c7c5c8c9c2c45)C613 (stereo not drawn) [Compound 2] | 1.0 | −1.17 | −3.63
3 | COCCOCCOCC1N(c2ccccc2)C(c2ccccc2)C23c4c5c6c7c8c9c(c%10c%11c2c2c%12c4c4c%13c5c5c7c7c8c8c%14c9c%10c9c%10c%11c2c2c%11c%12c4c4c%12c%13c5c5c7c7c8c8c%14c9c9c%10c2c2c%11c4c4c%12c5c7c5c8c9c2c45)C613 (stereo not drawn) [Compound 3] | 0.5 | −1.17 | −3.63
4 | C1=CC2=c3ccc4c5ccc6c7ccc8c9ccc%10c%11c%12c%13c%14c(c3c4c3c5c6c4c7c8c(c%119)c%13c4c%143)C23C(c2ccccc2)N(c2ccccc2)CC%123C=%101 (stereo not drawn) [Control Compound 1, reference compound] | 0.3 | −1.13 | −3.67
5 | COC(=O)CCCC1(c2ccccc2)C23c4c5c6c7c8c9c(c%10c%11c2c2c%12c4c4c%13c5c5c7c7c8c8c%14c9c%10c9c%10c%11c2c2c%11c%12c4c4c%12c%13c5c5c7c7c8c8c%14c9c9c%10c2c2c%11c4c4c%12c5c7c5c8c9c2c45)C613 (stereo not drawn) [[60]PCBM, [6,6]-phenyl-C61-butyric acid methyl ester, reference compound] |  | −1.13 | −3.67
6 | CCCCCCC1N(c2ccccc2)C(c2ccccc2)C23c4c5c6c7c8c9c(c%10c%11c2c2c%12c4c4c%13c5c5c7c7c8c8c%14c9c%10c9c%10c%11c2c2c%11c%12c4c4c%12c%13c5c5c7c7c8c8c%14c9c9c%10c2c2c%11c4c4c%12c5c7c5c8c9c2c45)C613 (stereo not drawn) [Compound 1] | 0.5 | −1.16 | −3.64
7 | CCCCOCC1N(c2ccccc2)C(c2ccccc2)C23c4c5c6c7c8c9c(c%10c%11c2c2c%12c4c4c%13c5c5c7c7c8c8c%14c9c%10c9c%10c%11c2c2c%11c%12c4c4c%12c%13c5c5c7c7c8c8c%14c9c9c%10c2c2c%11c4c4c%12c5c7c5c8c9c2c45)C613 (stereo not drawn) [Compound 4] | 0.5 | −1.17 | −3.63
8 | CCCCCCC1N(c2ccccc2)CC23C4=c5ccc6c7ccc8c9ccc%10c%11ccc%12c%13c(c%14c%15c2c5c6c2c7c8c5c9c%10c(c%13%11)c%14c5c%152)C13C=%12C=C4 (stereo not drawn) [Control Compound 2, reference compound] | 1.8 | −1.14 | −3.66
